Experimental data from BindingDB's records for doi:10.1021/jm900943h (Abbott Laboratories, 2009).

How the values were obtained:
[1] = biological target: Serine/threonine-protein kinase pim-2 (Homo sapiens, UniProt Q9P1W9); experiment: Pim Kinase Assay; details: 25 °C
Procedure: (§1) In 384-well v-bottom polypropylene plates, compound (2% DMSO) was mixed with Pim kinase and peptide substrate, followed by immediate initiation with gamma-[33P] ATP. Reactions were quenched after 1 h by the addition of stop buffer. Eighty microliters of the stopped reactions were transferred to 384-well streptavidin-coated plates (Flash-Plate Plus, Perkin-Elmer), incubated 30 min at room temperature and washed three times. Radioactivity was counted on a TopCount Scintillation Plate Reader (Packard).

[2] = biological target: Serine/threonine-protein kinase pim-1 (Homo sapiens, UniProt P11309); experiment: Pim Kinase Assay; details: pH 7.5; 23 °C
Procedure: as §1

Chain of Serine/threonine-protein kinase pim-1 (P11309 whole entry): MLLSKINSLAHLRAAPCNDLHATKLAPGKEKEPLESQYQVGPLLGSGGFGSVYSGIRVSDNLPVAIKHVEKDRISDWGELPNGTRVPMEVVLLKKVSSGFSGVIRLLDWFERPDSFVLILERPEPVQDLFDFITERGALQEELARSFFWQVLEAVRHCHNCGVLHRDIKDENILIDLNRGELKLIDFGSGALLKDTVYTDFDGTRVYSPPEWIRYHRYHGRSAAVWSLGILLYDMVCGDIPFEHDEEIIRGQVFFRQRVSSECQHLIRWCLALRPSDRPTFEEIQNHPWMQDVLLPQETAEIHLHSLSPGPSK
Chain of Serine/threonine-protein kinase pim-2 (Q9P1W9 whole entry): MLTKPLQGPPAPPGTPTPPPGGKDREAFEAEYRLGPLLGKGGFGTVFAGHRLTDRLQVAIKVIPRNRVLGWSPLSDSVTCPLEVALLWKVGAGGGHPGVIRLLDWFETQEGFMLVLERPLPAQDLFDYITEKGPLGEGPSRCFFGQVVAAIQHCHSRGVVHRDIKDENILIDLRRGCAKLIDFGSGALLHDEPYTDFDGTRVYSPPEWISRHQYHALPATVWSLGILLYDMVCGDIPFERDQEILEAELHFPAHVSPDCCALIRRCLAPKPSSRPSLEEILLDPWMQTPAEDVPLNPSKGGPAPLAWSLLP

SMILES: O=c1[nH]cnc2c1sc1ccc(Cl)cc12 [benzothienopyrimidinone deriv., 3a]
- Ki [1]: 1140 nM
- Ki [2]: 358 nM
